*1 amine or outer side, *2 acyl side, *3 side chain or, on linkers, in order; H or OH if unused. Where no end group is shown, it is not given here. [ ]: non-standard residue; d: D form. βAsp = O=C(O)[C@H](CC(=O)[*:2])N[*:1]
Tests used:
[1] = system: auto-antibodies in RA sera; experiment: ELISA detection of auto-antibodies in sera on Thy-GA-peptide conjugate coated plates (Example 2); type: binding, human; conditions: sera diluted one-hundred fold; MTP coated with Thy-GA conjugate 10 μg/ml; absorbency at 450 nm
Description: It was investigated whether auto-antibodies would recognise an Asn-315 derived septa-peptide and whether such auto-antibodies are a characteristic feature of rheumatoid arthritis. In order to carry out such investigations the IgG Fc Asn-315 derived (βL) septa-peptide Trp-Leu-Asp-β-Gly-Lys-Glu-Tyr, was manufactured synthetically. The peptide used was a preparation of linear (αL form) Trp-Leu-Asn-Gly-Lys-Glu-Tyr peptide heated to promote isomerisation by the following procedure. The peptide was dissolved in the buffer and heated for 4 hours at 90° C. to promote isomerisation and/or optical inversion. The resulting mix of isomerised (βL) optically inverted (αD and βD) and linear (αL) peptides were analysed by RP-HPLC using a 15-35% acetonitrile gradient in 0.1% TFA over 10 minutes with a flow rate of 1 ml/min, and the isomerisation status of the resulting peaks were studied by amino-acid analysis as described above. This peptide was dissolved at 5 mg/ml in 0.2 M Na-Phosphate pH 9.2. […]
0.5 ml thyroglobulin (30 mg/ml) in 0.1 M Na-phosphate buffer pH 8.0, was added drop-wise (over 2 minutes) and under constant mixing to 0.5 mL of the following solution: 10% GA, 40% H2O, 50% 0.2 M Na-Phosphate pH 8.0. […] The final volume was adjusted to 1500 μL and the protein concentration was determined by a BioRad protein assay performed according to the manufacturers instructions. […]

[2] = system: RA autoantibodies; experiment: Competition ELISA: binding of RA autoantibodies to Thy-GA-Trp-Leu-*Asx-Gly-Lys-Glu-Tyr coated plates (Example 3); parameters: species or system human; conditions: competitor 50 μl of 50 μg/ml pre-incubated with serum 17 hours at 4° C.; 6 RA sera
Description: The Thy-GA-Trp-Leu-*Asx-Gly-Lys-Glu-Tyr conjugate was dissolved in PBS to a final concentration of 10 μg/ml, and 100 μL of this solution is pipetted into the wells of a micro-titre-plate (MTP, flat-well polysorb, Nunc). the plate was blocked as described (Bonde et al 1994), and serum samples diluted one-hundred fold in 10 mM Na-phosphate, 140 mM NaCl, 0.1% tween-20, 1% BSA pH 7.4 (assay buffer) were added. The MTP was left for one hour ±5 minutes on a rotary shaker at 20° C. The plates were washed five times in washing buffer (25 mM tris, 140 mM NaCl, 0.1% tween-20 pH 7.4), by a manual plate washer. One-hundred μL assay buffer containing a one-thousand fold dilution of Perxidase conjugated rabbit anti human λ-chains (Dako 063) and κ-chains (Dako 013) was added into each well. The MTP was again incubated for one hour ±5 minutes on a rotary mixer at 20° C. After 5 times washing, 100 μl of peroxidase substrate was added (3,3′,5,5′ tetramethylbenzidine dihydrochloride (TMB), Kirkegaard & Perry Laboratories, USA) and incubated for 15±2 minutes at room temperature (18-22° C.) in the dark. After addition of 0.18 M H2SO4, the absorbency was measured at 450 nm.
The experiment was carried out as follows. Serum samples were diluted one-hundred fold in 10 mM Na-phosphate, 140 mM NaCl, 0.1% tween-20, 1% BSA pH 7.4 (assay buffer). Two-hundred μl was added to 1.5 ml polypropylene tubes followed by addition of 50 μl of the following reagents dissolved in assay buffer at a concentration of 50 μg/ml:
The tubes were placed at 4° C. for 17 hours, and one-hundred μl of the mixture was added into MTP coated with Thy-GA-Trp-Leu-*Asx-Gly-Lys-Glu-Tyr conjugate. The assay was performed as described above under example 2.

[3] = system: auto-antibodies reactive with isomerised IgG Fc Asn-315 derived peptides; experiment: Homogeneous RIA with 125I Thy-GA-Trp-Leu-*Asx-Gly-Lys-Glu-Tyr tracer, competition with peptides (Example 4); type: binding, human; conditions: highest concentration (10,000 ng/ml); P-0.01 by Student's T-Test
Description: A homogeneous RIA assay was developed for measurement of auto-antibodies with reactivity towards the isomerised form of the epitope Trp-Leu-Asn-Gly-Lys-Glu-Tyr derived from the IgG CH2 region. The assay was performed by incubating serum samples with ^125I Thy-GA-Trp-Leu-*Asx-Gly-Lys-Glu-Tyr overnight followed by precipitation of immune-complexes with protein A Sepharose.
Serum samples are diluted 1:200 in IMP buffer (IMP-buffer: 10 mm Na-Phosphate, pH 7.4, 140 mM NaCl, 5 mM EDTA, 0.5% Triton X-100, 0.1% BSA, 10 μg/ml soy-bean trypsin inhibitor). A Thy-GA-Trp-Leu-*Asx-Gly-Lys-Glu-Tyr conjugate is prepared as described in example 2 and iodinated with ^125I using the chloramine T protocol: 100 μg of the conjugate is diluted in 0.25 M Na2HPO4 to a total volume of 140 μl. 1.5 mCi Na^125I is added followed by 10 μL Chloramin-T (1 mg/ml, prepared freshly). The solution is vortexed for 30 seconds and 150 μL methionine (1 mg/ml) is added and immediately vortexed for 120 sec. The tracer is purified on size exclusion column (type: BIOSEP SEC S-2000, size: 300×7.80 mm) equilibrated with PBS containing 1% BSA Plow rate 1.0 ml/min. 500 μl fractions are collected and analysed in a scintillation counter (γ-counter). The fractions containing the tracer are pooled and used in the homogeneous RIA assay format. […]

[4] = system: Lewis rats; experiment: Induction of Experimental Autoimmune Encephalomyelitis by immunisation with MBP87-99 peptides (Example 7); type: in vivo, rat; conditions: for incidence of full-blown EAE (clinical score ≧2) / time of minimum weight / reduction of weight compared to PBS controls at minimum: Lewis rats, 200 μg peptide in CFA i.d.; for reduction of weight compared to PBS controls at minimum: 16 days post immunization
Description: Experimental Autoimmune Encephalomyelitis (EAE) is a paralytical central nervous system (CNS) disease that can be induced readily in susceptible animals by immunisation with myelin proteins. In this experiment MBP87-99 peptides (VHFFKNIVTPRTP) in linear and isomerised forms were used for induction of clinical EAE in Lewis rats.
36 female Lewis (L haplotype, Harlan) rats, 8 weeks of age were used in the experiment.
The animals were randomly assigned to one of the following three treatment groups: 1) a group receiving Asn or isoAsp MBP87-99 peptides 2) a positive control group receiving whole guinea pig MBP, and a negative control receiving PBS. The study was performed in a blinded fashion where the observer was unaware of the treatment of the animal. Below a detailed description of the three treatment groups is provided.
(§1) 1) MBP87-99 Group: Peptides were dissolved in PBS (2 mg/ml). The peptide solution was mixed 1:1 with CFA supplemented with Mycobacterium tubercolosum H37RA, 4 mg/ml and mixed until an emulgate Wars formed. 200 μl emulgate was injected per rat, intra-dermally (i.d.) in the root of the tail (containing 200 μg MBP87-99 and 400 μg Mycobacterium).
The neurological function in immunised animals was evaluated daily. The evaluation was performed blinded by an observer unaware of the treatment groups and codes used in the experiment. This evaluation was performed daily, where the clinical signs of EAE were noted. The clinical signs of EAE were scored according to the following scale: grade 0=no clinical signs, grade 1=tail paralysis or unsteady gait, grade 2=hind leg paraparesis, grade 3=hind leg paralysis, grade 4=complete paralysis (tetraplegia) and grade 5 moribound state or death.
The weight of animals was also measured on a daily basis, as one of the earliest signs of EAE is a weight reduction. The weight of the MBP and peptide immunised animals was compared to the PBS control-group.

[5] = system: Lewis rats; experiment: Oral tolerance: feeding of isoAspartyl MBP87-99 before EAE induction (Example 8); type: in vivo, rat
Description: 32 female Lewis (L haplotype, Harlan) rats, 8 weeks of age were used in the experiment.
as §1, with “Animals were immunised with the iso-aspartyl form of MBP87-99.” for “1) MBP87-99 Group:”, “mg/).” for “mg/ml).”, “was” for “Wars”
The solutions containing the MBP87-99 isoAspartyl peptides are fed to the animals using a plastic syringe. Control animals are given PBS alone. The effect of the oral administered peptide preparations is investigated at two dosing regimens (one dose 7 days before immunisation vs. 3 doses at one-week intervals before the immunisation. Furthermore, the effect of the dose of orally administered *Asx containing peptide on disease expression is investigated. Rats are fed various amounts of the peptide listed above 14 days before the day of immunisation (day −14) and at day −7 and 0 (day of immunisation). The rats are given either 25, 100 or 500 μg of the peptide, and eight rats are allocated to each treatment regimen as indicated in the table below.
The disease progression was monitored daily by scoring the neurological function in immunized animals as described in example 7. In addition animals were weighed daily. In addition, the animals were sacrificed sixteen days after immunisation for histopathological examination. The rat brains and spinal cords were dissected, fixed in 70% ethanol, containing 5% acetic acid and 4% formalin, dehydrated and embedded in paraffin. Multiple 5 μm thick section were prepared from cerebellum, brain stem, spinal cord C1-4 and L1-6 and stained with hematoxylin-eosin. The frequency of inflammatory infiltrates were scored, using hematoxylineosin stained section, as follows: 0 No inflammation, 1 small number of perivascular infiltration present in the tissue, 2 inflammation with several perivascular infiltrates, and 3 several perivascular infiltrates and tissue necrosis. […]

Row | Substance | competition of binding of RA autoantibodies to Thy-GA-Trp-Leu-*Asx-Gly-Lys-Glu-Tyr coated plates [2] | autoantibody reactivity of RA RF+ sera compared with RA RF- and control sera (ELISA signal) [1] | reactivity in competition RIA (percent inhibition by competing peptide), group basis [3] | incidence of full-blown EAE (clinical score ≧2) [4] | time of minimum weight [4] | reduction of weight compared to PBS controls at minimum [4] | other results
1 | Thy-GA-Glu-Lys-Ala-His-*Asx-Gly-Gly-Arg: another irrelevant Thy-GA conjugate [reference compound] | – | no differentiation between the groups | – | – | – | – | –
2 | Trp-Leu-*Asx-Gly-Lys-Glu-Tyr | could be competed out | elevated autoantibody reactivity | – | – | – | – | –
3 | VHFFKNIVTPRTP [Asn MBP87-99, non-modified MBP87-99 peptide, reference compound] | – | – | – | 75% | 16 days post immunization | 26% | fraction of animals affected by EAE with relatively mild symptoms (clinical score <3) ([4]; scale grade 0-5): one third
4 | isoAsp MBP87-99: MBP87-99 peptide (VHFFKNIVTPRTP) in isomerised form, Asn 92 giving iso-Asp (VHFFK[βAsp]IVTPRTP) | – | – | – | 25% | 16 days post immunization | 19% | EAE induction (result in words) ([4]; onset, peak score day and score levels comparable to non-modified control peptide): induced significant EAE; clinical score of all animals affected with EAE ([4]; scale grade 0-5): ≥ 3; EAE development after multiple 500 μg oral feedings ([5]; 500 μg fed at days -14, -7 and 0): complete suppression; EAE development after multiple oral feedings ([5]; fed at days -14, -7 and 0 before immunisation with iso-aspartyl MBP87-99): complete suppression; mean histological score (number of inflammation foci) compared to controls ([5]; multiple oral doses, sixteen days after immunisation, P<0.05): significantly reduced

Second part, led by results:

Row | competition of binding of RA autoantibodies to Thy-GA-Trp-Leu-*Asx-Gly-Lys-Glu-Tyr coated plates [2] | Substance | autoantibody reactivity of RA RF+ sera compared with RA RF- and control sera (ELISA signal) [1] | reactivity in competition RIA (percent inhibition by competing peptide), group basis [3] | incidence of full-blown EAE (clinical score ≧2) [4] | time of minimum weight [4] | reduction of weight compared to PBS controls at minimum [4] | other results
5 | able to compete out the binding | Thy-GA-Trp-Leu-*Asx-Gly-Lys-Glu-Tyr: peptide coupled to thyroglobulin with glutaraldehyde | – | significant reactivity | – | – | – | –
6 | able to compete out the binding | Trp-Leu-Asp-β-Gly-Lys-Glu-Tyr | – | significant reactivity | – | – | – | –

Source: patent US20030216319A1, “Specific autoimmune reactions against isomerised/optically inverted epitopes: application for treatment of autoimmune diseases” (priority 2000, published 2003)
